Laboratory results: patent US20060151899A1, “Process for producing drug ultramicroparticle and apparatus therefor” (priority 2004, published 2006)

Assay: Solubility under substantially physiological conditions
Format: physicochemical
Conditions: pH 5 to 7

- Solubility: insoluble or slightly soluble
Structure (SMILES): NS(=O)(=O)c1ccc(S(=O)(=O)Nc2cccc3c(Cl)c[nH]c23)cc1 [N-(3-chloro-7-indolyl)-1,4-benzenedisulfonamide]
